ChEMBL document CHEMBL1629516, “Novel insights for dihydroorotate dehydrogenase class 1A inhibitors discovery” (Eur J Med Chem, 2010)
Activity calls are given as the source filed them. The calls are words filed in the database; no cut-off is given here.

Experiments:
[1] = system: Trypanosoma cruzi; assay: (§1) Inhibition of Trypanosoma cruzi dihydroorotate dehydrogenase by isothermal titration calorimetry
[2] = as §1; conditions: read-out: Ki(app)
[3] = Inhibition of Leishmania major dihydroorotate dehydrogenase by isothermal titration calorimetry; conditions: read-out: Ki(app)

Structure (SMILES) | Ki(app) [1] | Ki [2] [µM] | Ki [3] [µM]
O=c1[nH]c(=O)c2nn[nH]c2[nH]1 | inactive |  | 
Oc1nc(O)c2nc(O)[nH]c2n1 | inactive |  | 
O=C(O)c1[nH]c(=O)[nH]c(=O)c1F |  | 19.3 | 
O=C1OCc2c1[nH]c(=O)[nH]c2=O | inactive |  | 
CCCCOC(=O)c1cc(O)nc(O)n1 | inactive |  | 

Now from value to compound:

Ki(app) [1] | Ki [2] [µM] | Ki [3] [µM] | Structure (SMILES)
 | 72.2 |  | O=C(O)c1cc(=O)[nH]c(=O)[nH]1 [OROTIC ACID]
 | 139 | 213 | O=C(O)c1[nH]c(=O)[nH]c(=O)c1[N+](=O)[O-]
 | 94.8 | 82.8 | Nc1c(C(=O)O)[nH]c(=O)[nH]c1=O
 | 21.7 |  | O=C(O)c1nc(=O)[nH]c(=O)[nH]1 [OTERACIL]
 | 300 |  | CN(C)Cc1c(C(=O)O)[nH]c(=O)[nH]c1=O
